According to patent publication US10758534B2 (Vertex Pharmaceuticals Incorporated, priority 2014, dated 2020):

Biological target: T1, F508del (Homo sapiens, UniProt P13569, DEL508-508)
T1 construct: expressed in transfected cells
Assay: Protocol 2: FRET membrane potential optical assay (VIPR), identification of correction compounds
Type: cell-based
Details: not given
Summary of the method: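 Corrector readout: membrane-potential FRET (CC2-DMPE donor, DiSBAC2(3) acceptor) on VIPR II after Cl⁻-free gluconate bath with 10 μM forskolin and 20 μM genistein. Before this, F508del-expressing NIH3T3 cells were exposed to test compound for 16 h at 37 °C without serum; 27 °C incubation served as temperature-correction control.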

T1 sequence (P13569 with tags, fused parts or gaps DEL508-508): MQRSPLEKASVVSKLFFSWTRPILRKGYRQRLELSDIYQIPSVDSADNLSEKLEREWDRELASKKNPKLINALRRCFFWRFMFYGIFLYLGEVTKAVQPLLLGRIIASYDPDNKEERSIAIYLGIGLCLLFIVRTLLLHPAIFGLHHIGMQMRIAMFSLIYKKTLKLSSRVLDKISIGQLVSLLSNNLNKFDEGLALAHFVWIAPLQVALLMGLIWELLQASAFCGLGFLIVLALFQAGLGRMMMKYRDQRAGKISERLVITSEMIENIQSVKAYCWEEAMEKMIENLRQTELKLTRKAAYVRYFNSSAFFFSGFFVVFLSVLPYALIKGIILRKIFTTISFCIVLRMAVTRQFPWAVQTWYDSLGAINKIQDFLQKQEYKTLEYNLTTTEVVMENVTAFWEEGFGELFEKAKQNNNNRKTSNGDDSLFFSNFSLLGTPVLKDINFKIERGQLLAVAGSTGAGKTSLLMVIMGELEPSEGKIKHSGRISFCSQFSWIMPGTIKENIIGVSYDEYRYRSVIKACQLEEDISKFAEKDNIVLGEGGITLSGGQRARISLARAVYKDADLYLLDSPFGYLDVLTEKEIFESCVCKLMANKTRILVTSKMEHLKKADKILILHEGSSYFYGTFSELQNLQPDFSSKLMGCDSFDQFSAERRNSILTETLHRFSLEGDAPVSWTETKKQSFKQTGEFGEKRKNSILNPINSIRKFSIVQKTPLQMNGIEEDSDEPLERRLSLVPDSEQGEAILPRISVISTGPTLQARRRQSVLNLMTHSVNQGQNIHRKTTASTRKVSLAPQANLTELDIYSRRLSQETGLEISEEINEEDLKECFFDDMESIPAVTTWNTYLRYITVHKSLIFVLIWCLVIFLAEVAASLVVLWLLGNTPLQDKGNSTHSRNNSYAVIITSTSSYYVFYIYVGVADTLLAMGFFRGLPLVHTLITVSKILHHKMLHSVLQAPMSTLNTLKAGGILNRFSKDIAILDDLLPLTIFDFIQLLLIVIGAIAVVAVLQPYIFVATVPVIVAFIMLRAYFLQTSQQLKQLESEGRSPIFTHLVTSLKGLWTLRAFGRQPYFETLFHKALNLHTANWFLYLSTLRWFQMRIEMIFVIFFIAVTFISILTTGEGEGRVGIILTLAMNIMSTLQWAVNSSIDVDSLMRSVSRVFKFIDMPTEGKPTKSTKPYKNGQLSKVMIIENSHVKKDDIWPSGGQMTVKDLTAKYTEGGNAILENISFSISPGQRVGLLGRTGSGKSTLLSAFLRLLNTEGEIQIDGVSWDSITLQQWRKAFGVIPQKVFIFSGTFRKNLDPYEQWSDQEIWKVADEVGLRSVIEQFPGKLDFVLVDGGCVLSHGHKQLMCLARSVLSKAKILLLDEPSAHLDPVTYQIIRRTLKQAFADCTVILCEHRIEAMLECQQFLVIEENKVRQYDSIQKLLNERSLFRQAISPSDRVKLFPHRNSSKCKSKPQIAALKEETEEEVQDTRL

| Structure (SMILES) | EC30 [nM] |
| --- | --- |
| [2H]C1([2H])[C@@H](C)CC(C)(C)N1c1nc(-c2cc(F)cc(OCC(C)C)c2)ccc1C(=O)NS(=O)(=O)c1ccccc1 [Compound 2560, N-(benzenesulfonyl)-2-[(3S)-2,2-dideuterio-3,5,5-trimethyl-pyrrolidin-1-yl]-6-(3-fluoro-5-isobutoxy-phenyl)pyridine-3-carboxamide] | < 3000 |

Same assay, conditions: F508del CFTR modulator activity; compounds of Table 1; read-out: EC30

| Structure (SMILES) | EC30 [nM] |
| --- | --- |
| CC(C)Oc1cccc(-c2ccc(C(=O)NS(=O)(=O)c3ccc[nH]c3=O)c(N3C[C@@H](C)CC3(C)C)n2)c1 [Compound 2549, 6-(3-isopropoxyphenyl)-N-[(2-oxo-1H-pyridin-3-yl)sulfonyl]-2-[(4S)-2,2,4-trimethylpyrrolidin-1-yl]pyridine-3-carboxamide] | < 3000 |
| Cc1ccn(CCCNc2cccc(S(=O)(=O)NC(=O)c3cccnc3N3CC(C)CC3(C)C)n2)n1 (stereo not drawn) [Compound 2550, N—[[6-[3-(3-methylpyrazol-1-yl)propylamino]-2-pyridyl]sulfonyl]-2-(2,2,4-trimethylpyrrolidin-1-yl)pyridine-3-carboxamide] | 3000 to 10000 |
| COc1cccc(Oc2cccc(S(=O)(=O)NC(=O)c3cccnc3N3CC(C)CC3(C)C)n2)c1 (stereo not drawn) [Compound 2551, N—[[6-(3-methoxyphenoxy)-2-pyridyl]sulfonyl]-2-(2,2,4-trimethylpyrrolidin-1-yl)pyridine-3-carboxamide] | < 3000 |
| C[C@@H]1CN(c2nc(CCC3CC3)ccc2C(=O)NS(=O)(=O)c2cccnc2N)C(C)(C)C1 [Compound 2553, N-[(2-amino-3-pyridyl)sulfonyl]-6-(2-cyclopropylethyl)-2-[(4S)-2,2,4-trimethylpyrrolidin-1-yl]pyridine-3-carboxamide] | < 3000 |
| C[C@@H]1CN(c2nc(-n3ccc(OCC(C)(C)C)n3)ccc2C(=O)NS(=O)(=O)C2CC2)C(C)(C)C1 [Compound 2554, N-cyclopropylsulfonyl-6-[3-(2,2-dimethylpropoxy)pyrazol-1-yl]-2-[(4S)-2,2,4-trimethylpyrrolidin-1-yl]pyridine-3-carboxamide] | < 3000 |
| C[C@@H]1CN(c2nc(-c3ccccc3O)ccc2C(=O)NS(=O)(=O)c2cccc(N)n2)C(C)(C)C1 [Compound 2555, N-[(6-amino-2-pyridyl)sulfonyl]-6-(2-hydroxyphenyl)-2-[(4S)-2,2,4-trimethylpyrrolidin-1-yl]pyridine-3-carboxamide] | < 3000 |
| Cc1cc(-c2ccc(C(=O)NS(=O)(=O)c3ccc[nH]c3=O)c(N3C[C@@H](C)CC3(C)C)n2)cc(C)c1O [Compound 2556, 6-(4-hydroxy-3,5-dimethyl-phenyl)-N-[(2-oxo-1H-pyridin-3-yl)sulfonyl]-2-[(4S)-2,2,4-trimethylpyrrolidin-1-yl]pyridine-3-carboxamide] | 3000 to 10000 |
| CCOc1ccccc1-c1cnc(N2CC(C)CC2(C)C)c(C(=O)NS(=O)(=O)c2cccc(N)n2)c1 (stereo not drawn) [Compound 2557, N-[(6-amino-2-pyridyl)sulfonyl]-5-(2-ethoxyphenyl)-2-(2,2,4-trimethylpyrrolidin-1-yl)pyridine-3-carboxamide] | < 3000 |
| Cc1cc(OCC(C)C)cc(-c2cnc(N3CC(C)CC3(C)C)c(C(=O)NS(=O)(=O)c3cccc(N)n3)c2)c1 (stereo not drawn) [Compound 2558, N-[(6-amino-2-pyridyl)sulfonyl]-5-(3-isobutoxy-5-methyl-phenyl)-2-(2,2,4-trimethylpyrrolidin-1-yl)pyridine-3-carboxamide] | < 3000 |
| C[C@@H]1CN(c2nc(-c3ccc(F)c(F)c3)ccc2C(=O)NS(=O)(=O)c2cccc(N)n2)C(C)(C)C1 [Compound 2559, N-[(6-amino-2-pyridyl)sulfonyl]-6-(3,4-difluorophenyl)-2-[(4S)-2,2,4-trimethylpyrrolidin-1-yl]pyridine-3-carboxamide] | < 3000 |
| CC1CN(c2ncccc2C(=O)NS(=O)(=O)c2cccc(N3CCCC3)n2)C(C)(C)C1 (stereo not drawn) [Compound 2561, N-[(6-pyrrolidin-1-yl-2-pyridyl)sulfonyl]-2-(2,2,4-trimethylpyrrolidin-1-yl)pyridine-3-carboxamide] | < 3000 |

More lines, now with the values ahead:

| EC30 [nM] | Structure (SMILES) |
| --- | --- |
| < 3000 | COc1cccc(-c2ccc(C(=O)NS(=O)(=O)c3cccnc3N)c(N3C[C@@H](C)CC3(C)C)n2)c1F [Compound 2562, N-[(2-amino-3-pyridyl)sulfonyl]-6-(2-fluoro-3-methoxy-phenyl)-2-[(4S)-2,2,4-trimethylpyrrolidin-1-yl]pyridine-3-carboxamide] |
| < 3000 | CC1CN(c2ncccc2C(=O)NS(=O)(=O)c2cccc(Oc3ccc(-n4cccc4)cc3)n2)C(C)(C)C1 (stereo not drawn) [Compound 2563, N—[[6-(4-pyrrol-1-ylphenoxy)-2-pyridyl]sulfonyl]-2-(2,2,4-trimethylpyrrolidin-1-yl)pyridine-3-carboxamide] |
| < 3000 | COc1ncc(-c2ccc(C(=O)NS(=O)(=O)c3cccnc3N)c(N3C[C@@H](C)CC3(C)C)n2)cc1C [Compound 2564, N-[(2-amino-3-pyridyl)sulfonyl]-6-(6-methoxy-5-methyl-3-pyridyl)-2-[(4S)-2,2,4-trimethylpyrrolidin-1-yl]pyridine-3-carboxamide] |
| 3000 to 10000 | CCC(CC)N1CCN(c2cccc(S(=O)(=O)NC(=O)c3cccnc3N3CC(C)CC3(C)C)n2)CC1 (stereo not drawn) [Compound 2565, N—[[6-[4-(1-ethylpropyl)piperazin-1-yl]-2-pyridyl]sulfonyl]-2-(2,2,4-trimethylpyrrolidin-1-yl)pyridine-3-carboxamide] |
| < 3000 | C[C@@H]1CN(c2nc(-c3cccc(F)c3)ccc2C(=O)NS(=O)(=O)c2cccc(N)n2)C(C)(C)C1 [Compound 2566, N-[(6-amino-2-pyridyl)sulfonyl]-6-(3-fluorophenyl)-2-[(4S)-2,2,4-trimethylpyrrolidin-1-yl]pyridine-3-carboxamide] |
| < 3000 | COc1ccc(-c2ccc(C(=O)NS(=O)(=O)c3ccc[nH]c3=O)c(N3C[C@@H](C)CC3(C)C)n2)c(F)c1F [Compound 2567, 6-(2,3-difluoro-4-methoxy-phenyl)-N-[(2-oxo-1H-pyridin-3-yl)sulfonyl]-2-[(4S)-2,2,4-trimethylpyrrolidin-1-yl]pyridine-3-carboxamide] |
| 3000 to 10000 | C[C@@H]1CN(c2nc(C3=CCCN(C(=O)NC(C)(C)C)C3)ccc2C(=O)NS(=O)(=O)c2cccc(N)n2)C(C)(C)C1 [Compound 2568, N-[(6-amino-2-pyridyl)sulfonyl]-6-[1-(tert-butylcarbamoyl)-3,6-dihydro-2H-pyridin-5-yl]-2-[(4S)-2,2,4-trimethylpyrrolidin-1-yl]pyridine-3-carboxamide] |
| < 3000 | CC(=O)c1cccc(Oc2cccc(S(=O)(=O)NC(=O)c3cccnc3N3CC(C)CC3(C)C)n2)c1 (stereo not drawn) [Compound 2569, N—[[6-(3-acetylphenoxy)-2-pyridyl]sulfonyl]-2-(2,2,4-trimethylpyrrolidin-1-yl)pyridine-3-carboxamide] |
| 3000 to 10000 | CCOc1cccc(-c2ccc(C(=O)NS(=O)(=O)N3CC[C@H](N)C3)c(N3C[C@@H](C)CC3(C)C)n2)c1 [Compound 2570, N-[(3S)-3-aminopyrrolidin-1-yl]sulfonyl-6-(3-ethoxyphenyl)-2-[(4S)-2,2,4-trimethylpyrrolidin-1-yl]pyridine-3-carboxamide] |
| < 3000 | COc1ccc(Nc2cccc(S(=O)(=O)NC(=O)c3cccnc3N3CC(C)CC3(C)C)n2)cc1Cl (stereo not drawn) [Compound 2571, N—[[6-(3-chloro-4-methoxy-anilino)-2-pyridyl]sulfonyl]-2-(2,24-trimethylpyrrolidin-1-yl)pyridine-3-carboxamide] |
| < 3000 | Cc1cccc(Nc2cccc(S(=O)(=O)NC(=O)c3cccnc3N3CC(C)CC3(C)C)n2)c1 (stereo not drawn) [Compound 2572, N—[[6-(3-methylanilino)-2-pyridyl]sulfonyl]-2-(2,2,4-trimethylpyrrolidin-1-yl)pyridine-3-carboxamide] |
| < 3000 | CC(C)COc1cc(F)cc(-c2ccc(C(=O)NS(=O)(=O)c3cccc(N)n3)c(N3CC(C(F)(F)F)CC3(C)C)n2)c1 (stereo not drawn) [Compound 2573] |
| 3000 to 10000 | CC1CN(c2ncccc2C(=O)NS(=O)(=O)c2cccc(NC3CC3)n2)C(C)(C)C1 (stereo not drawn) [Compound 2574, N—[[6-(cyclopropylamino)-2-pyridyl]sulfonyl]-2-(2,2,4-trimethylpyrrolidin-1-yl)pyridine-3-carboxamide] |
| < 3000 | COc1cc(C)c(-c2ccc(C(=O)NS(=O)(=O)c3ccc[nH]c3=O)c(N3C[C@@H](C)CC3(C)C)n2)c(C)c1 [Compound 2575, 6-(4-methoxy-2,6-dimethyl-phenyl)-N-[(2-oxo-1H-pyridin-3-yl)sulfonyl]-2-[(4S)-2,2,4-trimethylpyrrolidin-1-yl]pyridine-3-carboxamide] |
| < 3000 | CC[C@@H](C)Oc1ncc(-c2ccc(C(=O)NS(=O)(=O)c3cccc(N)n3)c(N3C[C@@H](C)CC3(C)C)n2)cc1C [Compound 2576, N-[(6-amino-2-pyridyl)sulfonyl]-6-[5-methyl-6-[(1R)-1-methylpropoxy]-3-pyridyl]-2-[(4S)-2,2,4-trimethylpyrrolidin-1-yl]pyridine-3-carboxamide] |
| < 3000 | C[C@@H]1CN(c2nc(-n3ccc(OCC(C)(C)C)n3)ccc2C(=O)NS(=O)(=O)c2ccc[nH]c2=O)C(C)(C)C1 [Compound 2578, 6-[3-(2,2-dimethylpropoxy)pyrazol-1-yl]-N-[(2-oxo-1H-pyridin-3-yl)sulfonyl]-2-[(4S)-2,2,4-trimethylpyrrolidin-1-yl]pyridine-3-carboxamide] |
| < 3000 | COc1ccc(CNc2cccc(S(=O)(=O)NC(=O)c3cccnc3N3CC(C)CC3(C)C)n2)cc1 (stereo not drawn) [Compound 2579, N—[[6-[(4-methoxyphenyl)methylamino]-2-pyridyl]sulfonyl]-2-(2,2,4-trimethylpyrrolidin-1-yl)pyridine-3-carboxamide] |
| < 3000 | CC1CN(c2ncccc2C(=O)NS(=O)(=O)c2cccc(N3Cc4ccc(F)cc4C3)n2)C(C)(C)C1 (stereo not drawn) [Compound 2580, N—[[6-(5-fluoroisoindolin-2-yl)-2-pyridyl]sulfonyl]-2-(2,2,4-trimethylpyrrolidin-1-yl)pyridine-3-carboxamide] |
